The results in this text go back to patent US8785457B2 (Cellzome Limited, priority 2009, dated 2014).

The IC50 is the concentration that inhibits the measured activity by half. Read a low IC50 as greater potency in that assay.

The test concerns Akt serine-473 phosphorylation. Briefly: In vitro Phospho-Akt cellular assay (pAkt S473) in HEK293T/17 cells. The test is classed as cell-based. The note with it: Homo sapiens, 2 hours. The text has this: Activation of mTOR signaling results in phosphorylation of several downstream targets. In cells, mTOR exists in two different protein complexes. The mTOR Complex-1 (mTORC1) phosphorylates and activates S6 Kinase 1 (S6K1) and S6 Kinase 2 (S6K2) (also known as p70S6K) which then phosphorylate S6 Ribosomal Protein (S6RP) (also known as RPS6)3. S6RP is phosphorylated on serine 235, serine 236, serine 240 and serine 244 by both pS6K1 and pS6K2. The mTOR Complex-2 (mTORC2) phosphorylates AKT on serine 473 which activates the AKT signaling pathway.
The assay measures a test compound's inhibition of S6RP serine-240/244 phosphorylation and inhibition of Akt serine-473 phosphorylation in human embryonic kidney derived HEK293T/17 cells (ATCC CRL-11268).
The HEK293T/17 cell line is maintained in DMEM media (Invitrogen catalogue number 41965-039) supplemented with 10% FCS at 37° C. in a 5% CO2 humidified incubator.
Cells are seeded in 96-well plates at 40,000 cells/well (pS6RP S240/244 assay) or 80,000 cells/well (pAkt S473 assay) in 90 μl growth media (DMEM, 2% FCS). Plates are incubated for 1 hour in a humidified incubator to allow the cells to adhere. Cells are treated with 8 concentrations of test compounds or DMSO alone for controls (final DMSO concentration 0.1%) and incubated at 37° C. for 2 hours. Then 20 μl of 5× concentrated lysis buffer (750 mM NaCl, 100 mM Tris pH7.4, 5 mM ADTA, 5 mM EGTA, 5% Triton X-100) is added, plates are sealed and incubated for 15 minutes at 4° C. with gentle shaking. After cell lysis, 25 μl cell lysate is transferred to a MesoScale plate coated with an antibody to pS6RP Ser240/244 (MesoScale Discovery K150DGD-3) or an antibody to pAkt Ser 473 (MesoScale Discovery K151DGD-3). Plates have been blocked before by incubation with 150 μl MesoScale Discovery Blocking Solution-A for 1 hour at room temperature followed by washing with 150 μl 1× Tris wash buffer per well. After the transfer of the cell lysate to the MSD plate, the pS6RP (or pAkt) protein is captured on the coated antibody by incubation at room temperature for 1 hour with gentle shaking. After the capture step the plate is washed three times with 150 μl of 1× Tris wash buffer per well. Then 25 μl detection antibody conjugated with a Sulfo-Tag is added and incubated for 1 hour at room temperature with gentle shaking. Subsequently the antibody solution is removed and the plate is washed 3 times with 150 μl×Tris wash buffer per well and 150 μl Read buffer is added. The plates are analysed on a MSD 2400 Plate Reader (MesoScale Discovery). Data analysis is performed using nonlinear regression for a sigmoidal dose-response with a variable slope.
`CCNC(=O)Nc1ccc(-c2nc3c(c(N4CCOC[C@@H]4C)n2)CN(C(=O)C(C)(C)C)C3)cc1` [Example 22, (S)-1-ethyl-3-(4-(4-(3-methylmorpholino)-6-pivaloyl-6,7-dihydro-5H-pyrrolo[3,4-d]pyrimidin-2-yl)phenyl)urea] came in with an IC50 of 29 nM.

With `CCNC(=O)Nc1ccc(-c2nc3c(c(N4CCOC[C@@H]4C)n2)CN(C)C3)cc1` [Example 26, (S)-1-ethyl-3-(4-(6-methyl-4-(3-methylmorpholino)-6,7-dihydro-5H-pyrrolo[3,4-d]pyrimidin-2-yl)phenyl)urea], half-maximal inhibition (IC50) was put at 68 nM. This IC50 is about 2.3-fold higher than that of the compound before. `CCNC(=O)Nc1ccc(-c2nc3c(c(N4CCOC[C@@H]4C)n2)CCN(CC)C3)cc1` [Example 27, (S)-1-ethyl-3-(4-(7-ethyl-4-(3-methylmorpholino)-5,6,7,8-tetrahydropyrido[3,4-d]pyrimidin-2-yl)phenyl)urea] came in with an IC50 of 16 nM. In turn, `CCNC(=O)N1Cc2nc(-c3ccc(NC(=O)NC4CC4)cc3)nc(N3CCOC[C@@H]3C)c2C1` [Example 33, (S)-2-(4-(3-cyclopropylureido)phenyl)-N-ethyl-4-(3-methylmorpholino)-5H-pyrrolo[3,4-d]pyrimidine-6(7H)-carboxamide] yielded an IC50 of 160 nM. In the case of `CCNC(=O)Nc1ccc(-c2nc3c(c(N4CCOC[C@@H]4C)n2)CCN(C)C3)cc1` [Example 35, (S)-1-ethyl-3-(4-(7-methyl-4-(3-methylmorpholino)-5,6,7,8-tetrahydropyrido[3,4-d]pyrimidin-2-yl)phenyl)urea] it was 14 nM; in that of `CCNC(=O)Nc1ccc(-c2nc3c(c(N4CCOC[C@@H]4C)n2)CCN(CC2CC2)C3)cc1` [Example 37, (S)-1-(4-(7-(cyclopropylmethyl)-4-(3-methylmorpholino)-5,6,7,8-tetrahydropyrido[3,4-d]pyrimidin-2-yl)phenyl)-3-ethylurea], 45 nM; in that of `C[C@H]1COCCN1c1nc(-c2ccc(NC(=O)NC3CC3)cc2)nc2c1CCN(CC1CC1)C2` [Example 40, (S)-1-cyclopropyl-3-(4-(7-(cyclopropylmethyl)-4-(3-methylmorpholino)-5,6,7,8-tetrahydropyrido[3,4-d]pyrimidin-2-yl)phenyl)urea], 43 nM. Compound `CC(C)N1CCc2c(nc(-c3ccc(NC(=O)NC4CC4)cc3)nc2N2CCOC[C@@H]2C)C1` [Example 43, (S)-1-cyclopropyl-3-(4-(7-isopropyl-4-(3-methylmorpholino)-5,6,7,8-tetrahydropyrido[3,4-d]pyrimidin-2-yl)phenyl)urea] had a 50% inhibitory concentration (IC50) of 35 nM. The compound `CCNC(=O)Nc1ccc(-c2nc3c(c(N4CCOC[C@@H]4C)n2)CCN(C(=O)C2CC2)C3)cc1` [Example 56, (S)-1-(4-(7-(cyclopropanecarbonyl)-4-(3-methylmorpholino)-5,6,7,8-tetrahydropyrido[3,4-d]pyrimidin-2-yl)phenyl)-3-ethylurea] registered a 50% inhibitory concentration (IC50) of 19 nM. In the case of `CCNC(=O)Nc1ccc(-c2nc3c(c(N4CCOC[C@@H]4C)n2)CCN(C(=O)C(C)C)C3)cc1` [Example 57, (S)-1-ethyl-3-(4-(7-isobutyryl-4-(3-methylmorpholino)-5,6,7,8-tetrahydropyrido[3,4-d]pyrimidin-2-yl)phenyl)urea] it was 14 nM; in that of `COC(=O)N1Cc2nc(-c3ccc(NC(=O)NC4CC4)cc3F)nc(N3CCOC[C@@H]3C)c2C1` [Example 146, (S)-methyl 2-(4-(3-cyclopropylureido)-2-fluorophenyl)-4-(3-methylmorpholino)-5H-pyrrolo[3,4-d]pyrimidine-6(7H)-carboxylate], 41 nM. In the case of `CCNC(=O)Nc1ccc(-c2nc3c(c(N4CCOCC4)n2)CN(C(=O)OCC)C3)c(F)c1` [Example 151, Ethyl 2-(4-(3-ethylureido)-2-fluorophenyl)-4-morpholino-5H-pyrrolo[3,4-d]pyrimidine-6(7H)-carboxylate] it was 107 nM; in that of `CCNC(=O)Nc1ccc(-c2nc3c(c(N4CCOC[C@@H]4C)n2)CN(C(=O)OC)C3)c(F)c1` [Example 152, (S)-methyl 2-(4-(3-ethylureido)-2-fluorophenyl)-4-(3-methylmorpholino)-5H-pyrrolo[3,4-d]pyrimidine-6-(7H)-carboxylate], 49 nM; in that of `CCOC(=O)N1Cc2nc(-c3ccc(NC(=O)NC4CC4)cc3F)nc(N3CCOCC3)c2C1` [Example 156, Ethyl 2-(4-(3-cyclopropylureido)-2-fluorophenyl)-4-morpholino-5H-pyrrolo[3,4-d]pyrimidine-6(7H)-carboxylate], 76 nM. In turn, `CN1Cc2nc(-c3ccc(NC(=O)NC4CC4)cc3F)nc(N3CCOCC3)c2C1` [Example 159, 1-(Cyclopropyl)-3-(3-fluoro-4-(6-methyl-4-morpholino-6,7-dihydro-5H-pyrrolo[3,4-d]pyrimidin-2-yl)phenyl)urea] gave a half-maximal inhibitory concentration (IC50) of 314 nM.

In turn, `CCNC(=O)Nc1ccc(-c2nc3c(c(N4CCOCC4)n2)CN(C(=O)OC)C3)c(F)c1` [Example 162, methyl 2-(4-(3-ethylureido)-2-fluorophenyl)-4-morpholino-5H-pyrrolo[3,4-d]pyrimidine-6(7H)-carboxylate] registered a half-inhibitory concentration (IC50) of 85 nM. Compound `C[C@H]1COCCN1c1nc(-c2ccc(NC(=O)NC3CC3)cc2F)nc2c1CCN(C(=O)N(C)C)C2` [Example 165, (S)-2-(4-(3-cyclopropylureido)-2-fluorophenyl)-N,N-dimethyl-4-(3-methylmorpholino)-5,6-dihydropyrido[3,4-d]pyrimidine-7(8H)-carboxamide] yielded a half-maximal inhibitory concentration (IC50) of 37 nM. In the case of `CCOC(=O)N1Cc2nc(-c3ccc(NC(=O)NCCF)cc3F)nc(N3CCOCC3)c2C1` [Example 170, ethyl 2-(2-fluoro-4-(3-(2-fluoroethyl)ureido)phenyl)-4-morpholino-5H-pyrrolo[3,4-d]pyrimidine-6(7H)-carboxylate] it was 54 nM; in that of `CC(C)N1Cc2nc(-c3ccc(NC(=O)NC4CC4)cc3F)nc(N3CCOC[C@@H]3C)c2C1` [Example 172, (S)-1-cyclopropyl-3-(3-fluoro-4-(6-isopropyl-4-(3-methylmorpholino)-6,7-dihydro-5H-pyrrolo[3,4-d]pyrimidin-2-yl)phenyl)urea], 101 nM; in that of `COC(=O)N1Cc2nc(-c3ccc(NC(=O)NC4CC4)cc3F)nc(N3CCOCC3)c2C1` [Example 173, Methyl 2-(4-(3-cyclopropylureido)-2-fluorophenyl)-4-morpholino-5H-pyrrolo[3,4-d]pyrimidine-6(7H)-carboxylate], 49 nM.

Compound `CCNC(=O)Nc1ccc(-c2nc3c(c(N4CCOC[C@@H]4C)n2)CCN(C(=O)N(C)C)C3)c(F)c1` [Example 176, (S)-2-(4-(3-ethylureido)-2-fluorophenyl)-N,N-dimethyl-4-(3-methylmorpholino)-5,6-dihydropyrido[3,4-d]pyrimidine-7(8H)-carboxamide] came in with a half-maximal inhibitory concentration (IC50) of 54 nM. In turn, `C[C@H]1COCCN1c1nc(-c2ccc(NC(=O)NC3CC3)cc2F)nc2c1CN(C(=O)N(C)C)C2` [Example 178, (S)-2-(4-(3-cyclopropylureido)-2-fluorophenyl)-N,N-dimethyl-4-(3-methylmorpholino)-5H-pyrrolo[3,4-d]pyrimidine-6(7H)-carboxamide] yielded a half-maximal inhibitory concentration (IC50) of 52 nM.
